Key:
[1] = test system: ID8 ovarian cancer; experiment: ID8 syngeneic orthotropic ovarian cancer murine model; assay type: in vivo, mouse; details: 15 mg/kg/BID orally vs vehicle
Excerpt: The ID8 syngeneic orthotropic ovarian cancer murine model was used to investigate the therapeutic efficacy of the BTK inhibitor of Formula (II) through treatment of the solid tumor microenvironment. Human ovarian cancer models, including the ID8 syngeneic orthotropic ovarian cancer model and other animal models, are described in Fong and Kakar, J. Ovarian Res. 2009, 2, 12; Greenaway, et al., Gynecol. Oncol. 2008, 108, 385-94; Urzua, et al., Tumour Biol. 2005, 26, 236-44; Janat-Amsbury, et al., Anticancer Res. 2006, 26, 3223-28; Janat-Amsbury, et al., Anticancer Res. 2006, 26, 2785-89. Animals were treated with vehicle or Formula (II), 15 mg/kg/BID given orally. The results of the study are shown in FIG. 35A, FIG. 35B, FIG. 36, FIG. 37, FIG. 38A, FIG. 38B, FIG. 39A, and FIG. 39B.

[2] = test system: anti-KLH IgM and IgG antibody response; experiment: T cell dependent antibody response (TDAR) to KLH in rats; assay type: in vivo, rat; details: 1, 2.5 and 5 mg/kg/day oral gavage, KLH on Day 50
Experimental: Rats were treated with oral gavage administration of vehicle or Formula (II) at doses of 1, 2.5 and 5 mg/kg/day for 91 days. Sixteen rats per gender were evaluated for development of T cell dependent antibody response (TDAR), with primary immunization on Day 50 with keyhole limpet hemocyanin (KLH) by subcutaneous injection. Dosing continued and on Days 57, 64, and 71, blood samples were collected via the sublingual vein into tubes without anticoagulant and allowed to clot at room temperature for at least 30 minutes, then the serum was divided into 4 approximately equal aliquots and stored frozen at approximately −60 to −90° C. Anti-KLH IgM and IgG antibody levels were determined using an enzyme-linked immunosorbent assay (ELISA). FIG. 41A, FIG. 41B, FIG. 41C, FIG. 41D, FIG. 41E, FIG. 41F, FIG. 42A, FIG. 42B, FIG. 42C, FIG. 42D, FIG. 42E, and FIG. 42F illustrate the trends in anti-KLH antibody responses among male and female rats.

[3] = biological target: T1, BTK (Homo sapiens, UniProt Q06187); experiment: BTK target occupancy in CD5+/CD19+ tumor cells of relapsed/refractory CLL patients; assay type: in vivo
T1 sequence (Q06187 whole entry): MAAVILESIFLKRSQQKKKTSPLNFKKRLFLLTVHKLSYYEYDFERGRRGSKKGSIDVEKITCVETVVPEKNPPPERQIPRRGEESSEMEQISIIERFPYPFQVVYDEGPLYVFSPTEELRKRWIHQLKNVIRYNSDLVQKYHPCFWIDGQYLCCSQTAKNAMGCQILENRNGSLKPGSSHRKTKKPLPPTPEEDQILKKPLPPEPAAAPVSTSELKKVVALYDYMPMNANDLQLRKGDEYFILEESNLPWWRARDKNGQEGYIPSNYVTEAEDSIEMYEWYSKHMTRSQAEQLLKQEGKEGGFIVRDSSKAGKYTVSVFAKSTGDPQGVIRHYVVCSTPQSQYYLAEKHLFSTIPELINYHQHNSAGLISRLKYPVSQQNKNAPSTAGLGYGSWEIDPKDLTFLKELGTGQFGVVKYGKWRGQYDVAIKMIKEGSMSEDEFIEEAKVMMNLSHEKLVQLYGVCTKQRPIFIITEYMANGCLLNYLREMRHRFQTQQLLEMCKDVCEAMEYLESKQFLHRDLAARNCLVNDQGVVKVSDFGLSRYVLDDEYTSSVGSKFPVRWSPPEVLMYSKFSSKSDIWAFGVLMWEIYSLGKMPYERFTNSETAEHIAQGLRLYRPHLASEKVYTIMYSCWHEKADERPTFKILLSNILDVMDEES
Experimental: Peripheral blood samples were obtained over time and BTK target occupancy was evaluated using a BTK active-site specific probe in an ELISA assay.

[4] = biological target: T1, BTK; experiment: PK/PD model fit and simulation of BTK occupancy and pBTK inhibition; details: for BTK resynthesis rate (modeled estimate): 15 mg QD

With `CC#CC(=O)N1CCC[C@H]1c1nc(-c2ccc(C(=O)Nc3ccccn3)cc2)c2c(N)nccn12` [Formula (II), (S)-4-(8-amino-3-(1-(but-2-ynoyl)pyrrolidin-2-yl)imidazo[1,5-a]pyrazin-1-yl)-N-(pyridin-2-yl)benzamide] the “CD8+ T cells” value [1] was “increase”, the “ID8 ovarian cancer growth” value [1] was “impairs ID8 ovarian cancer growth” and the “immunosuppressive B cells in tumor-bearing mice” value [1] was “significant reduction”. The “immunosuppressive tumor associated Tregs” value [1] was “significant reduction”, the immunosuppressive tumor-associated lymphocytes [1] was “significant reduction” and the “anti-KLH IgM and IgG production” value [2] was “significant pharmacological effects on the magnitude of IgM and IgG production”. The “percentage BTK occupancy” value ([3]; 100 mg BID compared with any QD dosing schedule) was “higher percentage BTK occupancy”, the “resynthesis of BTK in CLL tumor cells” value ([3]; 100 mg QD compared with 100 mg BID) was “more rapid than after 100 mg BID dosing” and the “BTK occupancy in peripheral blood compartment” value ([3]; 3-4 hours post dose, all treated subjects) was “full BTK occupancy”. For the same compound, the “BTK target occupancy in circulating tumor cells throughout the dosing interval” value ([3]; total daily doses above 200 mg, once-daily or twice-daily) was > 90%, the “k4,1 (model rate constant)” value ([4]; 15 mg QD model fit) was 0.91 and the “BTK resynthesis rate (modeled estimate)” value ([4]; after the first 48 hours) was 0.04. The “BTK resynthesis rate (modeled estimate)” value ([4]; first 48 hours) was 0.1.

Source: patent US20170143712A1, “Methods of Treating Cancers, Immune and Autoimmune Diseases, and Inflammatory Diseases Based on BTK Occupancy and BTK Resynthesis Rate” (Acerta Pharma B.V., priority 2014, published 2017)
